From article PMC8637573, “EWS–FLI1‐targeting peptide identifies Ewing sarcoma tumor boundaries and lymph node metastasis via near‐infrared imaging” (Molecular Oncology, 2021)
Residues, ends and D or L forms follow the SMILES beside them.

Legend:
E/F in A673 cells = target: T1, E/F in A673 cells (Homo sapiens, UniProt Q01543+Q01844); experiment: Binding affinity test (competition of E9R with CS2‐N‐E9R); conditions: E9R 4 × 10^−3 M to 4 × 10^−9 M incubated 1 h, washed, then 4 μM CS2‐N‐E9R 40 min, Odyssey Infrared Imager, average of quadruple wells, read-out: IC50 for the inhibition of CS2‐N‐E9R binding E/F
T1 construct: endogenous in cells; host or cells: A673 cells (fixed and permeabilised in A8, living in A10)
T1 sequence (Q01844+Q01543 with tags, fused parts or gaps): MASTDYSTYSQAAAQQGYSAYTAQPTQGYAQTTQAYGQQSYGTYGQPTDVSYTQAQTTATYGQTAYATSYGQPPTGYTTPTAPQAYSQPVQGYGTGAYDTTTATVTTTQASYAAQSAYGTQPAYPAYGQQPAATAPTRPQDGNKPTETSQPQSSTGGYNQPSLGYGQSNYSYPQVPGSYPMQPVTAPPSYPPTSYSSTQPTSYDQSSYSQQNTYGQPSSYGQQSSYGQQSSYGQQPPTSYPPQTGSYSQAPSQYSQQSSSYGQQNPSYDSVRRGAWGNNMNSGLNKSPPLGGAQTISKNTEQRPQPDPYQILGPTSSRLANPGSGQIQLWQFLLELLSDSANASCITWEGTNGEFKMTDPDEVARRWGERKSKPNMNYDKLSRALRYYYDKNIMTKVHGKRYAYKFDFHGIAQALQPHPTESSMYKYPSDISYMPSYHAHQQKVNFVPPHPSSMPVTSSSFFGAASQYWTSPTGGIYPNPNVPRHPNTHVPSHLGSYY
Method: As to the binding affinity test, serial concentrations of E9R (from 4 × 10^−3 M to 4 × 10^−9 M) were prepared as competitors for CS2‐N‐E9R. A673 cells were seeded into 96‐well Black Polystyrene Assay plate at a concentration of 4 × 10^3 cells per well with 150 μL medium containing 10% FBS at incubator for 24 h. Different concentrations of E9R were added into palate and incubated for 1 h, and then washed three times with PBS (pH 7.4). 4 μM of CS2‐N‐E9R was then added into each well and incubated for another 40 min. After that the samples were washed and imaged with Odyssey® Infrared Imager. Each data point represents the average value of quadruple wells. Data were analyzed using GRAPHPAD PRISM (GraphPad Software, San Diego, CA, USA). IC50 values, which were defined as the concentration of competitive agent required to inhibit 50% of CS2‐N‐E9R binding, were calculated.

A673 cells = experiment: Living cell fluorescence imaging; type: cell-based, human; conditions: A673 cells pre‐incubated with 50 μM E9R for 1 h, then 10 μM CS2‐N‐E9R
Method: E/F‐positive ES cells (A673) and E/F‐negative sarcoma cells (143B) were then seeded into confocal culture dishes at a density of 2 × 10^5 cells each dish in 1.5‐mL medium containing 10% FBS. After 24 h of cell attachment, the dishes were then washed three times with 1 mL PBS. The dishes were then cultured in medium with 10 μM probe CS2‐N‐E9R. The intracellular probe aggregations were then observed by Leica‐LCS‐SP8‐STED confocal microscope (Leica, Wetzlar, Germany).
E/F‐positive ES cells (A673 cells, RD‐ES cells) and E/F‐negative osteosarcoma cells (143B cells), hepatoma carcinoma cells (Hep3B cells), and […] embryonic human kidney cells (293T cells) were seeded into confocal culture dishes. All the dishes were incubated with 10 μM CS2‐N‐E9R for 1 h and washed three times with PBS buffer before imaging, except for the control and blocking groups. For the control group, A673 cells were incubated with 10 μM control probe CS2‐N‐E. For the blocking group, A673 cells were pre‐incubated with 50 μM peptide E9R as a blocking agent for 1 h, after that incubated with 10 μM probe CS2‐N‐E9R.

IC50 (E/F in A673 cells): 3.69 µM
SMILES: CC[C@H](C)[C@H](NC(=O)[C@@H](NC(=O)[C@H](C)NC(=O)[C@H](CC(=O)O)NC(=O)[C@H](CC(C)C)NC(=O)[C@@H]1CCCN1C(=O)[C@@H]1CCCN1C(=O)[C@@H]1CCCN1)C(C)C)C(=O)N[C@@H](CCC(=O)O)C(=O)N[C@@H](C)C(=O)O [E9R] (H-PPPLDAVIEA-OH; N-terminus assumed)
fluorescence of CS2‐N‐E9R after pretreatment with blocking agent (A673 cells): fluorescence muted
